Converted amounts (≈) assume the structure as drawn. “And” between values parts separate entries of the source, which are not always exact repeats. Equal values may be shown once.
Experiments:
Streptococcus viridans = experiment: Antibacterial activity against Streptococcus viridans assessed as inhibition of bacterial growth; assay type: functional
[1] = system: Human immunodeficiency virus 1; experiment: Antiviral activity against HIV-1; assay type: functional, organism-based
[2] = biological target: T1, Polyunsaturated fatty acid 5-lipoxygenase (Homo sapiens) (UniProt P09917); experiment: Inhibition of ALOX5 (unknown origin) assessed as reduction in 5-HETE formation
T1 sequence (whole entry): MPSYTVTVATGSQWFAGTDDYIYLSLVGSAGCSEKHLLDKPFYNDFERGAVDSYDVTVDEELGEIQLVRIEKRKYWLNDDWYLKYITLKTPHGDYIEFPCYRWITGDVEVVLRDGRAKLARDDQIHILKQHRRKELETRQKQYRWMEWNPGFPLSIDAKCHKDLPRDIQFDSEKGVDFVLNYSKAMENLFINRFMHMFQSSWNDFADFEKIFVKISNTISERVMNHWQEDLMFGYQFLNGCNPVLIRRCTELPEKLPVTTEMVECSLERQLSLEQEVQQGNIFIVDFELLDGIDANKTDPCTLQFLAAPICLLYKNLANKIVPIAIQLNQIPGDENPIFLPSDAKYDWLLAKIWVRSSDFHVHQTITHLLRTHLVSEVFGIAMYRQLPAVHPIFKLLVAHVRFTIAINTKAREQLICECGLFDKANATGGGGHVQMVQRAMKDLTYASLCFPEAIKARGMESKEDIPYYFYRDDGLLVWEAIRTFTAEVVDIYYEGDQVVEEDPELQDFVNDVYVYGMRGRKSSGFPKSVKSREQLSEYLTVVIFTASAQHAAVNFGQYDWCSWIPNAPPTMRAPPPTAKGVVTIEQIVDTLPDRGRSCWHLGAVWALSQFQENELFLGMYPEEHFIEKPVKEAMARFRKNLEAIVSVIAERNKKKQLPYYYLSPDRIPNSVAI

[3] = system: Trichophyton mentagrophytes; experiment: Antifungal activity against Trichophyton mentagrophytes assessed as inhibition of microbial growth; assay type: functional
Homo sapiens [4] = species: Homo sapiens; experiment: Inhibition of LTB3 (unknown origin) at 0.00001 M relative to control; conditions: dose 10 µM
Rattus norvegicus = species: Rattus norvegicus; experiment: Inhibition of iron-induced lipid peroxidation in rat brain homogenate; assay type: functional
Rhizoctonia solani = experiment: Antifungal activity against Rhizoctonia solani assessed as inhibition of microbial growth; assay type: functional
Bacillus subtilis = experiment: Antibacterial activity against Bacillus subtilis assessed as inhibition of bacterial growth; assay type: functional
Homo sapiens [5] = species: Homo sapiens; experiment: Inhibition of LTB3 (unknown origin) at 0.000001 M relative to control; conditions: dose 1 µM
[6] = biological target: T1, Polyunsaturated fatty acid 5-lipoxygenase (Homo sapiens); experiment: Inhibition of ALOX5 (unknown origin) assessed as reduction in calmodulin level
Staphylococcus aureus = experiment: Antibacterial activity against Staphylococcus aureus assessed as inhibition of bacterial growth; assay type: functional
Streptococcus pyogenes = experiment: Antibacterial activity against Streptococcus pyogenes assessed as inhibition of bacterial growth; assay type: functional
Trypanosoma cruzi = experiment: […] activity against drug sensitive Trypanosoma cruzi assessed as inhibition of parasite growth; assay type: functional, organism-based
[7] = biological target: T1, Polyunsaturated fatty acid 5-lipoxygenase (Homo sapiens); experiment: Inhibition of ALOX5 (unknown origin) at 0.0000001 M relative to control; conditions: dose 100 nM
[8] = biological target: T1, Polyunsaturated fatty acid 5-lipoxygenase (Homo sapiens); experiment: Inhibition of ALOX5 (unknown origin) at 0.00000001 M relative to control; conditions: dose 10 nM
[9] = system: Trypanosoma brucei rhodesiense; experiment: […] activity against drug sensitive Trypanosoma brucei rhodesiense assessed as inhibition of parasite growth; assay type: functional, organism-based
[10] = biological target: T1, Polyunsaturated fatty acid 5-lipoxygenase (Homo sapiens); experiment: Inhibition of ALOX5 (unknown origin) at 0.000001 M relative to control; conditions: dose 1 µM
Aspergillus niger = experiment: Antifungal activity against Aspergillus niger assessed as inhibition of microbial growth; assay type: functional
Candida albicans = experiment: Antifungal activity against Candida albicans assessed as inhibition of fungal growth by MTT assay; assay type: functional
DNA polymerase beta = DNA polymerase beta (Homo sapiens, UniProt P06746); experiment: Inhibition of DNA polymerase beta (unknown origin)
[11] = system: Trypanosoma brucei brucei; experiment: Antitrypanosomal activity against bloodstream Trypanosoma brucei brucei assessed as parasite growth inhibition measured after 72 hrs by alamar blue assay; assay type: functional, organism-based
KB = experiment: Antiproliferative activity against human KB cells assessed as cell growth inhibition; assay type: functional, cell-based
Plasmodium falciparum [12] = experiment: Antimalarial activity against drug sensitive Plasmodium falciparum NF54 assessed as inhibition of parasite growth; assay type: functional, organism-based
Leishmania donovani = experiment: […] activity against drug sensitive Leishmania donovani assessed as inhibition of parasite growth; assay type: functional, organism-based
Pyricularia oryzae = experiment: Antifungal activity against Pyricularia oryzae assessed as inhibition of microbial growth; assay type: functional, organism-based
MCF7 = experiment: Antiproliferative activity against human MCF7 cells assessed as cell growth inhibition; assay type: functional, cell-based
Neisseria meningitidis = experiment: Antibacterial activity against Neisseria meningitidis assessed as inhibition of bacterial growth; assay type: functional
[13] = biological target: T1, Polyunsaturated fatty acid 5-lipoxygenase (Homo sapiens); experiment: Inhibition of ALOX5 (unknown origin) at 0.00001 M relative to control; conditions: dose 10 µM
[14] = biological target: Calmodulin-1 (Homo sapiens) (UniProt P0DP23); experiment: Inhibition of calmodulin (unknown origin)
[15] = Inhibition of plasmodium falciparum fabZ
Pasteurella multocida = experiment: Antibacterial activity against Pasteurella multocida assessed as inhibition of bacterial growth; assay type: functional
Homo sapiens [16] = species: Homo sapiens; experiment: Inhibition of LTB3 (unknown origin) at 0.00000001 M relative to control; conditions: dose 10 nM
Haemophilus influenzae = experiment: Antibacterial activity against Haemophilus influenzae assessed as inhibition of bacterial growth; assay type: functional
Homo sapiens [17] = species: Homo sapiens; experiment: Inhibition of LTB3 (unknown origin) at 0.0000001 M relative to control; conditions: dose 100 nM
Bacillus cereus = experiment: Antibacterial activity against Bacillus cereus assessed as inhibition of bacterial growth; assay type: functional
Cryptococcus neoformans = experiment: […] activity against Cryptococcus neoformans assessed as inhibition of […]; assay type: functional
[18] = Antioxidant activity assessed as DPPH radical scavenging activity; assay type: functional
Cyclooxygenase = Cyclooxygenase (Homo sapiens, UniProt P35354+P23219); experiment: Inhibition of COX (unknown origin); assay type: protein assay
Breast carcinoma cell = experiment: Antiproliferative activity against human Breast cancer cell line assessed as cell growth inhibition; assay type: functional, cell-based
Priestia megaterium = experiment: Antibacterial activity against Bacillus megaterium assessed as inhibition of bacterial growth; assay type: functional
[19] = system: Acinetobacter calcoaceticus; experiment: Antibacterial activity against Acinetobacter calcoaceticus assessed as inhibition of bacterial growth; assay type: functional
Plasmodium falciparum [20] = experiment: Antimalarial activity against drug sensitive Plasmodium falciparum KI assessed as inhibition of parasite growth; assay type: functional, organism-based
K562 = experiment: Antiproliferative activity against human K562 cells assessed as cell growth inhibition; assay type: functional
P388 = experiment: Antiproliferative activity against mouse P388 cells assessed as cell growth inhibition; assay type: functional, cell-based
DU-145 = experiment: Antiproliferative activity against human DU-145 cells assessed as cell growth inhibition; assay type: functional
HT-29 = experiment: Antiproliferative activity against human HT-29 cells assessed as cell growth inhibition; assay type: functional, cell-based
NCI-H460 = experiment: Antiproliferative activity against human NCI-H460 cells assessed as cell growth inhibition; assay type: functional
U-937 = experiment: Antiproliferative activity against human U-937 cells assessed as cell growth inhibition; assay type: functional
HCT-116 = experiment: Antiproliferative activity against human HCT-116 cells assessed as cell growth inhibition; assay type: functional
[21] = system: Trypanosoma brucei brucei; experiment: […] activity against Trypanosoma brucei brucei GUTat 3.1 assessed as inhibition of parasite growth measured after 72 hrs by alamar blue assay; assay type: functional, organism-based; conditions: GUTat 3.1, time 72 hrs
A549 = experiment: Antiproliferative activity against human A549 cells assessed as cell growth inhibition; assay type: functional
M14 = experiment: Antiproliferative activity against human M14 cells assessed as cell growth inhibition; assay type: functional
[22] = Cytotoxicity against mouse 3T3 cells assessed as reduction in cell viability; assay type: toxicity, cell-based; conditions: NIH3T3 cells
Caenorhabditis elegans = experiment: Nematocidal activity against Caenorhabditis elegans; assay type: functional, organism-based
Leishmania amazonensis = experiment: Antileishmanial activity against Leishmania amazonensis axenic amastigotes assessed as inhibition of parasite growth; assay type: functional, organism-based

## Oc1cc2cc(c1O)Oc1ccc(cc1)CCc1cccc(O)c1Oc1cccc(c1)CC2 [MARCHANTIN A]
Streptococcus viridans
  MIC: 18.1 µM (≈ 7.97 µg/mL)
[1]
  IC50: 5.3 µg/mL (≈ 12 µM)
[2]
  ID50: 1.85 µg/mL (≈ 4.2 µM)
[3]
  MIC: 3.13 µg/mL
Homo sapiens [4]
  inhibition: 99%
Rattus norvegicus
  IC50: 0.51 µM
Rhizoctonia solani
  MIC: 50 µg/mL
Bacillus subtilis
  MIC: 25 µg/mL (≈ 56.8 µM)
Homo sapiens [5]
  inhibition: 97%
[6]
  ID50: 1.85 µg/mL (≈ 4.2 µM)
Staphylococcus aureus
  MIC: 3.13 µg/mL and 0.0069 µM
Streptococcus pyogenes
  MIC: 9.1 µM (≈ 4.01 µg/mL)
Trypanosoma cruzi
  IC50: 14.1 µM
[7]
  inhibition: 45%
[8]
  inhibition: 16%
[9]
  IC50: 2.09 µM
[10]
  inhibition: 94%
Aspergillus niger
  MIC: 25 µg/mL
Candida albicans
  MID: 2.5 µg/mL
DNA polymerase beta
  IC50: 14.4 µM
[11]
  IC50: 0.27 µg/mL (≈ 0.613 µM)
KB
  IC50: 3.7 µM
Plasmodium falciparum [12]
  IC50: 3.41 µM
Leishmania donovani
  IC50: 1.59 µM
Pyricularia oryzae
  MIC: 12.5 µg/mL
MCF7
  IC50: 4 µg/mL and 11.5 µM
Neisseria meningitidis
  MIC: 72.7 µM (≈ 32 µg/mL)
[13]
  inhibition: 89%
[14]
  ID50: 1.85 µg/mL (≈ 4.2 µM)
[15]
  IC50: 18.2 µM
Pasteurella multocida
  MIC: 4.5 µM (≈ 1.98 µg/mL)
Homo sapiens [16]
  inhibition: 40%
Haemophilus influenzae
  MIC: 72.7 µM (≈ 32 µg/mL)
Homo sapiens [17]
  inhibition: 70%
Bacillus cereus
  MIC: 12.5 µg/mL (≈ 28.4 µM)
Cryptococcus neoformans
  MIC: 12.5 µg/mL (≈ 28.4 µM)
[18]
  IC50: 20 µg/mL (≈ 45.4 µM)
Cyclooxygenase
  IC50: 46.4 µM
Breast carcinoma cell
  IC50: 5.5 µM
Priestia megaterium
  MIC: 25 µg/mL (≈ 56.8 µM)
[19]
  MIC: 6.25 µg/mL (≈ 14.2 µM)
Plasmodium falciparum [20]
  IC50: 2.02 µM

## CC(=O)OCC1=CO[C@H](OC(C)=O)[C@@H]2[C@H]1[C@@H]1[C@H](CC[C@@]23CO3)C1(C)C
K562
  GI50: 4.8 µM
P388
  IC50: 3 µg/mL (≈ 8.56 µM)
DU-145
  GI50: 1.4 µM
HT-29
  GI50: 1.9 µM
NCI-H460
  GI50: 4.8 µM
U-937
  GI50: 2.6 µM
KB
  IC50: 0.28 µg/mL
HCT-116
  GI50: 4.7 µM
MCF7
  GI50: 6.8 µM
[21]
  MIC: 14.5 µM (≈ 5.08 µg/mL)
A549
  GI50: 9.4 µM
M14
  GI50: 3.9 µM
[22]
  GI50: 1.7 µM
Caenorhabditis elegans
  IC50: 111 µg/mL (≈ 317 µM)
Leishmania amazonensis
  IC50: 7.1 µM

— ChEMBL document CHEMBL5260825, “Chemical Constituents of Bryophytes: Structures and Biological Activity” (J Nat Prod, 2018)
